Earlier results, collected in patent publication US11638700B2, “Iron/shikonin nano-composite and use thereof and method for preparing the same by supermolecular self-assembly” (Jilin University, priority 2020, dated 2023).

Conditions: generally considered

SMILES: CC(C)=CC[C@@H](O)C1=CC(=O)c2c(O)ccc(O)c2C1=O [shikonin]
- solubility of shikonin in water: insoluble in water
